Tested on: subjects with moderately to severely active RA who have an inadequate response to methotrexate (MTX)
Test: Study 1 (add-on to MTX) - Subject VAS mean changes (ACR patient assessment)
Assay type: in vivo, human
Procedure: The scale is 100 mm, the decrease in mm is shown. […] (dotted line), 100 mg q.d. (dashed line) or 200 mg q.d. (dark solid line). […] The results shown in the figures are calculated using Last-Observation-Carried-Forward (LOCF), which handles missing data by assigning the value recorded at the patient's last visit to all subsequent missed visits.
Double-blind, placebo-controlled add on study in subjects with moderately to severely active RA who have an inadequate response to methotrexate (MTX) (oral or parenteral).
595 subjects randomized to one of 6 dose regimens of Compound 1 (dosed as [Compound 1:HCl:3H2O]) (3 dose levels administered either once or twice daily) or placebo on top of each subject's stable dose of MTX.
Compound 1 (dosed as [Compound 1:HCl:3H2O]) is dosed for twelve weeks once daily (q.d.) (50 mg, 100 mg or 200 mg) or twice daily (b.i.d.) (25 mg, 50 mg or 100 mg); or placebo.
At Week 12, the subjects on placebo who have not achieved 20% improvement in swollen joint count (SJC66) and tender joint count (TJC68) are re-randomized automatically to receive Compound 1 (dosed as a [Compound 1:HCl:3H2O]) either at 100 mg q.d. or 50 mg b.i.d. doses in a blinded fashion; subjects on 50 mg q.d. who have not achieved 20% improvement in SJC66 and TJC68 will be assigned to 100 mg q.d. and subjects on 25 mg b.i.d. that have not achieved a 20% improvement in SJC66 and TJC68 will be assigned to 50 mg b.i.d. Subjects who switch treatment at week 12 are handled as if they discontinued at week 12 for the purpose of statistical analysis, whereas subjects in the other groups will maintain their randomized treatment until Week 24.
Firstly, the patient is asked to make a vertical mark on a 100 mm Visual Analog Scale (VAS) corresponding to their general health or global disease activity on a touch screen to measure the VAS value, which is used in the formula below.
The American College of Rheumatology (ACR) composite score, which evaluates clinical improvement relative to an initial assessment, is a commonly accepted efficacy end point for clinical trials in patients with rheumatoid arthritis. The ACR score correspond to a percentage improvement in pre-set parameters, and therefore measures the evolution of the disease in a patient. For example, ACR20 denotes at least 20% improvement in tender and swollen joint counts and in three of the following end points: global assessment by the patient, global assessment by the doctor, C reactive protein (CRP), patient's pain Visual Analogue Scale and Health Assessment Questionnaire Score. The number of swollen joints, ESR and CRP correlate with radiographic progression of joint damage, whereas tender joint counts, as well as global assessments by doctors and patients, and patients' reports of pain, are sensitive to change in clinical outcomes. Physical function, as assessed by the Health Assessment Questionnaire Score, is a potent predictor of the risk of disability in rheumatoid arthritis (Felson and American College of Rheumatology Committee to Reevaluate Improvement Criteria, 2007; Felson et al., 1993).

## O=C(Nc1nc2cccc(-c3ccc(CN4CCS(=O)(=O)CC4)cc3)n2n1)C1CC1 [Compound 1, cyclopropanecarboxylic acid {5-[4-(1,1-dioxo-thiomorpholin-4-ylmethyl)-phenyl]-[1,2,4]triazolo[1,5-a]pyridin-2-yl}-amide]
50 mg q.d., week 0, LOCF, 24 weeks results
  Subject VAS mean changes (ACR patient assessment): 0.0
50 mg q.d., week 2, LOCF, 24 weeks results
  Subject VAS mean changes (ACR patient assessment): −15.5
50 mg q.d., week 4, LOCF, 24 weeks results
  Subject VAS mean changes (ACR patient assessment): −20.9
50 mg q.d., week 8, LOCF, 24 weeks results
  Subject VAS mean changes (ACR patient assessment): −26.4
50 mg q.d., week 12, LOCF, 24 weeks results
  Subject VAS mean changes (ACR patient assessment): −25.2
50 mg q.d., week 16, LOCF, 24 weeks results
  Subject VAS mean changes (ACR patient assessment): −27.7
50 mg q.d., week 20, LOCF, 24 weeks results
  Subject VAS mean changes (ACR patient assessment): −28.1
50 mg q.d., week 24, LOCF, 24 weeks results
  Subject VAS mean changes (ACR patient assessment): −29.4
50 mg q.d., week 0, LOCF, 12 weeks results
  Subject VAS mean changes (ACR patient assessment): 0.0
50 mg q.d., week 1, LOCF, 12 weeks results
  Subject VAS mean changes (ACR patient assessment): −11.2
50 mg q.d., week 2, LOCF, 12 weeks results
  Subject VAS mean changes (ACR patient assessment): −15.5
50 mg q.d., week 4, LOCF, 12 weeks results
  Subject VAS mean changes (ACR patient assessment): −20.9
50 mg q.d., week 8, LOCF, 12 weeks results
  Subject VAS mean changes (ACR patient assessment): −26.4
50 mg q.d., week 12, LOCF, 12 weeks results
  Subject VAS mean changes (ACR patient assessment): −25.2
100 mg q.d., week 0, LOCF, 24 weeks results
  Subject VAS mean changes (ACR patient assessment): 0.0
100 mg q.d., week 2, LOCF, 24 weeks results
  Subject VAS mean changes (ACR patient assessment): −20.9
100 mg q.d., week 4, LOCF, 24 weeks results
  Subject VAS mean changes (ACR patient assessment): −24.4
100 mg q.d., week 8, LOCF, 24 weeks results
  Subject VAS mean changes (ACR patient assessment): −29.8
100 mg q.d., week 12, LOCF, 24 weeks results
  Subject VAS mean changes (ACR patient assessment): −29.1
100 mg q.d., week 16, LOCF, 24 weeks results
  Subject VAS mean changes (ACR patient assessment): −31.7
100 mg q.d., week 20, LOCF, 24 weeks results
  Subject VAS mean changes (ACR patient assessment): −35.1
100 mg q.d., week 24, LOCF, 24 weeks results
  Subject VAS mean changes (ACR patient assessment): −34.4
100 mg q.d., week 0, LOCF, 12 weeks results
  Subject VAS mean changes (ACR patient assessment): 0.0
100 mg q.d., week 1, LOCF, 12 weeks results
  Subject VAS mean changes (ACR patient assessment): −13.2
100 mg q.d., week 2, LOCF, 12 weeks results
  Subject VAS mean changes (ACR patient assessment): −20.8
100 mg q.d., week 4, LOCF, 12 weeks results
  Subject VAS mean changes (ACR patient assessment): −24.4
100 mg q.d., week 8, LOCF, 12 weeks results
  Subject VAS mean changes (ACR patient assessment): −29.8
100 mg q.d., week 12, LOCF, 12 weeks results
  Subject VAS mean changes (ACR patient assessment): −29.1
200 mg q.d., week 0, LOCF, 24 weeks results
  Subject VAS mean changes (ACR patient assessment): 0.0
200 mg q.d., week 2, LOCF, 24 weeks results
  Subject VAS mean changes (ACR patient assessment): −21.8
200 mg q.d., week 4, LOCF, 24 weeks results
  Subject VAS mean changes (ACR patient assessment): −24.9
200 mg q.d., week 8, LOCF, 24 weeks results
  Subject VAS mean changes (ACR patient assessment): −29.6
200 mg q.d., week 12, LOCF, 24 weeks results
  Subject VAS mean changes (ACR patient assessment): −34.2
200 mg q.d., week 16, LOCF, 24 weeks results
  Subject VAS mean changes (ACR patient assessment): −32.9
200 mg q.d., week 20, LOCF, 24 weeks results
  Subject VAS mean changes (ACR patient assessment): −33.0
200 mg q.d., week 24, LOCF, 24 weeks results
  Subject VAS mean changes (ACR patient assessment): −34.9
200 mg q.d., week 0, LOCF, 12 weeks results
  Subject VAS mean changes (ACR patient assessment): 0.0
200 mg q.d., week 1, LOCF, 12 weeks results
  Subject VAS mean changes (ACR patient assessment): −16.7
200 mg q.d., week 2, LOCF, 12 weeks results
  Subject VAS mean changes (ACR patient assessment): −21.8
200 mg q.d., week 4, LOCF, 12 weeks results
  Subject VAS mean changes (ACR patient assessment): −25.2
200 mg q.d., week 8, LOCF, 12 weeks results
  Subject VAS mean changes (ACR patient assessment): −29.6
200 mg q.d., week 12, LOCF, 12 weeks results
  Subject VAS mean changes (ACR patient assessment): −34.0
2 × 25 mg b.i.d., week 0, LOCF, 12 weeks results
  Subject VAS mean changes (ACR patient assessment): 0.0
2 × 25 mg b.i.d., week 0, LOCF, 24 weeks results
  Subject VAS mean changes (ACR patient assessment): 0.0
2 × 25 mg b.i.d., week 1, LOCF, 12 weeks results
  Subject VAS mean changes (ACR patient assessment): −8.2
2 × 25 mg b.i.d., week 2, LOCF, 12 weeks results
  Subject VAS mean changes (ACR patient assessment): −11.7
2 × 25 mg b.i.d., week 2, LOCF, 24 weeks results
  Subject VAS mean changes (ACR patient assessment): −11.7
2 × 25 mg b.i.d., week 4, LOCF, 12 weeks results
  Subject VAS mean changes (ACR patient assessment): −16.0
2 × 25 mg b.i.d., week 4, LOCF, 24 weeks results
  Subject VAS mean changes (ACR patient assessment): −16.0
2 × 25 mg b.i.d., week 8, LOCF, 12 weeks results
  Subject VAS mean changes (ACR patient assessment): −22.2
2 × 25 mg b.i.d., week 8, LOCF, 24 weeks results
  Subject VAS mean changes (ACR patient assessment): −22.2
2 × 25 mg b.i.d., week 12, LOCF, 12 weeks results
  Subject VAS mean changes (ACR patient assessment): −25.2
2 × 25 mg b.i.d., week 12, LOCF, 24 weeks results
  Subject VAS mean changes (ACR patient assessment): −25.2
2 × 25 mg b.i.d., week 16, LOCF, 24 weeks results
  Subject VAS mean changes (ACR patient assessment): −25.5
2 × 25 mg b.i.d., week 20, LOCF, 24 weeks results
  Subject VAS mean changes (ACR patient assessment): −25.6
2 × 25 mg b.i.d., week 24, LOCF, 24 weeks results
  Subject VAS mean changes (ACR patient assessment): −27.3
2 × 50 mg b.i.d., week 0, LOCF, 12 weeks results
  Subject VAS mean changes (ACR patient assessment): 0.0
2 × 50 mg b.i.d., week 1, LOCF, 12 weeks results
  Subject VAS mean changes (ACR patient assessment): −8.8
2 × 50 mg b.i.d., week 2, LOCF, 12 weeks results
  Subject VAS mean changes (ACR patient assessment): −13.6
2 × 50 mg b.i.d., week 2, LOCF, 24 weeks results
  Subject VAS mean changes (ACR patient assessment): −13.8
2 × 50 mg b.i.d., week 4, LOCF, 12 weeks results
  Subject VAS mean changes (ACR patient assessment): −16.9
2 × 50 mg b.i.d., week 4, LOCF, 24 weeks results
  Subject VAS mean changes (ACR patient assessment): −16.9
2 × 50 mg b.i.d., week 8, LOCF, 12 weeks results
  Subject VAS mean changes (ACR patient assessment): −21.0
2 × 50 mg b.i.d., week 8, LOCF, 24 weeks results
  Subject VAS mean changes (ACR patient assessment): −21.0
2 × 50 mg b.i.d., week 12, LOCF, 12 weeks results
  Subject VAS mean changes (ACR patient assessment): −27.0
2 × 50 mg b.i.d., week 12, LOCF, 24 weeks results
  Subject VAS mean changes (ACR patient assessment): −27.0
2 × 50 mg b.i.d., week 16, LOCF, 24 weeks results
  Subject VAS mean changes (ACR patient assessment): −26.3
2 × 50 mg b.i.d., week 20, LOCF, 24 weeks results
  Subject VAS mean changes (ACR patient assessment): −29.7
2 × 50 mg b.i.d., week 24, LOCF, 24 weeks results
  Subject VAS mean changes (ACR patient assessment): −28.1
2 × 100 mg b.i.d., week 0, LOCF, 12 weeks results
  Subject VAS mean changes (ACR patient assessment): 0.0
2 × 100 mg b.i.d., week 1, LOCF, 12 weeks results
  Subject VAS mean changes (ACR patient assessment): −20.0
2 × 100 mg b.i.d., week 2, LOCF, 12 weeks results
  Subject VAS mean changes (ACR patient assessment): −25.5
2 × 100 mg b.i.d., week 2, LOCF, 24 weeks results
  Subject VAS mean changes (ACR patient assessment): −25.5
2 × 100 mg b.i.d., week 4, LOCF, 12 weeks results
  Subject VAS mean changes (ACR patient assessment): −28.6
2 × 100 mg b.i.d., week 4, LOCF, 24 weeks results
  Subject VAS mean changes (ACR patient assessment): −28.2
2 × 100 mg b.i.d., week 8, LOCF, 12 weeks results
  Subject VAS mean changes (ACR patient assessment): −32.8
2 × 100 mg b.i.d., week 8, LOCF, 24 weeks results
  Subject VAS mean changes (ACR patient assessment): −33.0
2 × 100 mg b.i.d., week 12, LOCF, 12 weeks results
  Subject VAS mean changes (ACR patient assessment): −35.6
2 × 100 mg b.i.d., week 12, LOCF, 24 weeks results
  Subject VAS mean changes (ACR patient assessment): −35.6
2 × 100 mg b.i.d., week 16, LOCF, 24 weeks results
  Subject VAS mean changes (ACR patient assessment): −37.9
2 × 100 mg b.i.d., week 20, LOCF, 24 weeks results
  Subject VAS mean changes (ACR patient assessment): −39.1
2 × 100 mg b.i.d., week 24, LOCF, 24 weeks results
  Subject VAS mean changes (ACR patient assessment): −39.1

Source: patent US20180200257A1, “METHODS FOR THE TREATMENT OF INFLAMMATORY DISORDERS” (Galapagos NV, priority 2015, published 2018)
